Columns and labels:
HIV-IIIb = assay: Test A: Antiviral assay in MT4 cells; format: cell-based, HIV-1; conditions: Human immunodeficiency virus 1, IIIB, MT4, 120 h, read-out: % inhibition at 2 μM, percent inhibition of virus-induced cell killing, from dose response curve at 2 uM drug; MT-4 cells infected with HIV-IIIb, 5 days, CellTiter-Glo
in vitro = conditions: human, uninfected MT-4 cells, CC50 (nM), same protocol as Test A, CellTiter-Glo
Outline: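 Cytoprotection read-out: CellTiter-Glo chemiluminescence after 5 days at 37 °C of HIV-IIIb-infected MT-4 cells (m.o.i. 0.003) with compound in 10-point 3-fold dilutions, quadruplicate, 10% FBS. Cytotoxicity (CC50) measured identically without virus.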

| Compound | inhibition at 2 µM (HIV-IIIb) | CC50 at 5 days (in vitro) |
| --- | --- | --- |
| CN(C)C(=O)c1cccc(-c2cccnc2[C@H](Cc2cc(F)cc(F)c2)NC(=O)Cc2c[nH]c3ccc(O)cc23)c1 [Example 48, (S)-3-(2-(2-(3,5-difluorophenyl)-1-(2-(5-hydroxy-1H-indol-3-yl)acetamido)ethyl)pyridin-3-yl)-N,N-dimethylbenzamide] | 74% | > 53000 nM |
| CC(C)c1cc(C(=O)O)nn1CC(=O)N[C@@H](Cc1cc(F)cc(F)c1)c1ncccc1-c1ccc(F)c(C(N)=O)c1 [Example 521] | 0% | > 53200 nM |
| NC(=O)c1cc(-c2cccnc2[C@H](Cc2cccc(F)c2)NC(=O)Cn2nc(C(F)(F)F)cc2Br)ccc1F [Example 222B, (S)-5-(2-(1-(2-(5-bromo-3-(trifluoromethyl)-1H-pyrazol-1-yl)acetamido)-2-(3-fluorophenyl)ethyl)pyridin-3-yl)-2-fluorobenzamide] | 21% | 25600 nM |
| NCc1ccc2[nH]cc(CC(=O)N[C@@H](Cc3cc(F)cc(F)c3)c3ncccc3-c3ccc(Cl)cc3)c2c1 [Example 491F, (S)-2-(5-(aminomethyl)-1H-indol-3-yl)-N-(1-(3-(4-chlorophenyl)pyridin-2-yl)-2-(3,5-difluorophenyl)ethyl)acetamide] | 18% | 7850 nM |
| NC(=O)c1cccc(-c2cccnc2[C@H](Cc2cc(F)cc(F)c2)NC(=O)Cn2ccc3cc(F)c(F)cc32)c1 [Example 594B, (S)-3-(2-(1-(2-(5,6-difluoro-1H-indol-1-yl)acetamido)-2-(3,5-difluorophenyl)ethyl)pyridin-3-yl)benzamide] | 12% | 13400 nM |
| Cc1noc(C)c1-c1cccnc1[C@H](Cc1cc(F)cc(F)c1)NC(=O)Cc1c[nH]c2ccc(F)cc12 [Example 94, N-((1S)-2-(3,5-difluorophenyl)-1-(3-(3,5-dimethylisoxazol-4-yl)pyridin-2-yl)ethyl)-2-(5-fluoro-1H-indol-3-yl)acetamide] | 3% | 42000 nM |
| NC(=O)c1cc(-c2cccnc2[C@H](Cc2cc(F)cc(F)c2)NC(=O)[C@H]2COCCN2)ccc1F [Example 188, (R)—N—((S)-1-(3-(3-carbamoyl-4-fluorophenyl)pyridin-2-yl)-2-(3,5-difluorophenyl)ethyl)morpholine-3-carboxamide] | 0% | > 53000 nM |
| COc1ccc2c(c1)NC(=O)C2CC(=O)N[C@@H](Cc1cc(F)cc(F)c1)c1ncccc1-c1ccc(F)c(C(N)=O)c1 (stereo partly drawn) [Example 256, 5-(2-((1S)-2-(3,5-difluorophenyl)-1-(2-(6-methoxy-2-oxoindolin-3-yl)acetamido)ethyl)pyridin-3-yl)-2-fluorobenzamide] | 15% | > 53200 nM |
| NC(=O)c1cc(-c2cccnc2[C@H](Cc2cc(F)cc(F)c2)NC(=O)Cc2cc(=O)[nH]c3ccccc23)ccc1F [Example 201, (S)-5-(2-(2-(3,5-difluorophenyl)-1-(2-(2-oxo-1,2-dihydroquinolin-4-yl)acetamido)ethyl)pyridin-3-yl)-2-fluorobenzamide] | 8% | > 53200 nM |
| O=C(Cc1c[nH]c2ccc(O)cc12)N[C@@H](Cc1cc(F)cc(F)c1)c1ncccc1Br [Example 38D, (S)—N-(1-(3-bromopyridin-2-yl)-2-(3,5-difluorophenyl)ethyl)-2-(5-hydroxy-1H-indol-3-yl)acetamide] | 3% | 42600 nM |
| O=C(Cn1nc(C(F)F)cc1C(F)F)N[C@@H](Cc1cc(F)cc(F)c1)c1ccccn1 [Example 528, (S)-2-(3,5-bis(difluoromethyl)-1H-pyrazol-1-yl)-N-(2-(3,5-difluorophenyl)-1-(pyridin-2-yl)ethyl)acetamide] | 0% | > 53200 nM |
| COc1ccc(-c2cccnc2[C@H](Cc2cc(F)cc(F)c2)NC(=O)Cc2c[nH]c3ccc(O)cc23)cc1 [Example 13G, (S)—N-(2-(3,5-difluorophenyl)-1-(3-(4-methoxyphenyl)pyridin-2-yl)ethyl)-2-(5-hydroxy-1H-indol-3-yl)acetamide] | 97% | 25600 nM |
| CCc1c(-c2ccccc2)c(C(F)(F)F)nn1CC(=O)N[C@@H](Cc1cc(F)cc(F)c1)c1ncccc1-c1ccc(F)c(C(N)=O)c1 [Example 290, (S)-5-(2-(2-(3,5-difluorophenyl)-1-(2-(5-ethyl-4-phenyl-3-(trifluoromethyl)-1H-pyrazol-1-yl)acetamido)ethyl)pyridin-3-yl)-2-fluorobenzamide] | 4% | 11500 nM |
| Cc1cc(C)c2c(c1)NC(=O)C2CC(=O)N[C@@H](Cc1cccc(F)c1)c1ncccc1-c1ccc(F)c(C(N)=O)c1 (stereo partly drawn) [Example 59E, 5-(2-((1S)-1-(2-(4,6-dimethyl-2-oxoindolin-3-yl)acetamido)-2-(3-fluorophenyl)ethyl)pyridin-3-yl)-2-fluorobenzamide] | 75% | 45100 nM |
| O=C(Cc1c[nH]c2ccc(F)cc12)N[C@@H](Cc1cc(F)cc(F)c1)c1ncccc1-c1ccc2nonc2c1 [Example 441, (S)—N-(1-(3-(benzo[c][1,2,5]oxadiazol-5-yl)pyridin-2-yl)-2-(3,5-difluorophenyl)ethyl)-2-(5-fluoro-1H-indol-3-yl)acetamide] | 35% | 8650 nM |
| CC(C(=O)N[C@@H](Cc1cc(F)cc(F)c1)c1ncccc1-c1ccc(F)c(C(N)=O)c1)n1ccc(C(F)(F)F)n1 (stereo partly drawn) [Example 507B, 5-(2-((1S)-2-(3,5-difluorophenyl)-1-(2-(3-(trifluoromethyl)-1H-pyrazol-1-yl)propanamido)ethyl)pyridin-3-yl)-2-fluorobenzamide] | 22% | > 45300 nM |
| Cc1ccc2c(ccn2CC(=O)N[C@@H](Cc2cc(F)cc(F)c2)c2ncccc2-c2ccc(F)c(C(N)=O)c2)c1 [Example 547, (S)-5-(2-(2-(3,5-difluorophenyl)-1-(2-(5-methyl-1H-indol-1-yl)acetamido)ethyl)pyridin-3-yl)-2-fluorobenzamide] | 45% | 13300 nM |
| NC(=O)c1cc(-c2cccnc2[C@H](Cc2cc(F)cc(F)c2)NC(=O)Cn2nc(C(F)F)c3c2C2CC(C3)C2)ccc1F [Example 87, (S)-5-(2-(2-(3,5-difluorophenyl)-1-(2-(4,5,6,7-tetrahydro-3-difluoromethyl-5,7-(methano)indazol-1-yl)acetamido)ethyl)pyridin-3-yl)-2-fluorobenzamide] | 101% | 21600 nM |
| Cc1cc(=O)n(CC(=O)N[C@@H](Cc2cc(F)cc(F)c2)c2ncccc2-c2cccc(S(N)(=O)=O)c2)c2ccccc12 [Example 345, (S)—N-(2-(3,5-difluorophenyl)-1-(3-(3-sulfamoylphenyl)pyridin-2-yl)ethyl)-2-(4-methyl-2-oxoquinolin-1(2H)-yl)acetamide] | 21% | 12400 nM |
| O=C(Cn1nc(C(F)F)c2c1C(F)(F)C1CC21)N[C@@H](Cc1cc(F)cc(F)c1)c1ncccc1-c1ccc(OC(F)F)cc1 (stereo partly drawn) [Example 231, N—((S)-1-(3-(4-(difluoromethoxy)phenyl)pyridin-2-yl)-2-(3,5-difluorophenyl)ethyl)-2-(3-(difluoromethyl)-5,5-difluoro-3b,4,4a,5-tetrahydro-1H-cyclopropa[3,4]cyclopenta[1,2-c]pyrazol-1-yl)acetamide] | 79% | 43200 nM |
